Source: PubChem BioAssay (NCI)
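All cell lines were grown in 96-well plates and treated with compound for 48 hours. GI50 is the concentration that inhibits growth by half. TGI is the concentration that stops growth completely.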

Legend:
Assay in all cases: NCI anticancer screen, dose series, 48 h
[1] = test system: 786-0 renal
[2] = test system: A498 renal
[3] = test system: A549 NSCLC
[4] = test system: ACHN renal
[5] = test system: BT-549 breast
[6] = test system: CAKI-1 renal
[7] = test system: CCRF-CEM leukemia
[8] = test system: COLO 205 colon
[9] = test system: DU-145 prostate
[10] = test system: EKVX NSCLC
[11] = test system: HCC-2998 colon
[12] = test system: HCT-116 colon
[13] = test system: HCT-15 colon
[14] = test system: HL-60(TB) leukemia
[15] = test system: HOP-62 NSCLC
[16] = test system: HOP-92 NSCLC
[17] = test system: HS 578T breast
[18] = test system: HT29 colon
[19] = test system: IGROV1 ovarian
[20] = test system: K-562 leukemia
[21] = test system: KM12 colon
[22] = test system: LOX IMVI melanoma
[23] = test system: M14 melanoma
[24] = test system: MALME-3M melanoma
[25] = test system: MCF7 breast
[26] = test system: MDA-MB-231 breast
[27] = test system: MDA-MB-435
[28] = test system: MOLT-4 leukemia
[29] = test system: NCI-H226 lung
[30] = test system: NCI-H23 lung
[31] = test system: NCI-H460 lung
[32] = test system: NCI-H522 lung
[33] = test system: NCI/ADR-RES ovarian
[34] = test system: OVCAR-3 ovarian
[35] = test system: OVCAR-4 ovarian
[36] = test system: OVCAR-5 ovarian
[37] = test system: OVCAR-8 ovarian
[38] = test system: PC-3 prostate
[39] = test system: RPMI-8226 leukemia
[40] = test system: SF-268 CNS
[41] = test system: SF-295 CNS
[42] = test system: SF-539 CNS
[43] = test system: SK-MEL-2 melanoma
[44] = test system: SK-MEL-28 melanoma
[45] = test system: SK-MEL-5 melanoma
[46] = test system: SK-OV-3 ovarian
[47] = test system: SN12C renal
[48] = test system: SNB-19 CNS
[49] = test system: SNB-75 CNS
[50] = test system: SR leukemia
[51] = test system: SW-620 colon
[52] = test system: T-47D breast
[53] = test system: TK-10 renal
[54] = test system: U251 CNS
[55] = test system: UACC-257 melanoma
[56] = test system: UACC-62 melanoma
[57] = test system: UO-31 renal

Cc1cc2c(cc1Cl)SC1=NN(C)C(c3ccccc3O)N1S2(=O)=O (centres undefined)
GI50 [1]: > 100 µM | TGI [1]: > 100 µM | GI50 [2]: > 100 µM | TGI [2]: > 100 µM | GI50 [3]: 86.2 µM | TGI [3]: > 100 µM | GI50 [4]: > 100 µM | TGI [4]: > 100 µM | GI50 [5]: 95.2 µM | TGI [5]: > 100 µM | GI50 [6]: > 100 µM | TGI [6]: > 100 µM | GI50 [7]: 75.4 µM | TGI [7]: > 100 µM | GI50 [8]: > 100 µM | TGI [8]: > 100 µM | GI50 [9]: 65.7 µM | TGI [9]: > 100 µM | GI50 [10]: 81.7 µM | TGI [10]: > 100 µM | GI50 [11]: 65.5 µM | TGI [11]: > 100 µM | GI50 [12]: 44.1 µM | TGI [12]: > 100 µM | GI50 [13]: 54 µM | TGI [13]: > 100 µM | GI50 [14]: > 100 µM | TGI [14]: > 100 µM | GI50 [15]: 88.5 µM | TGI [15]: > 100 µM | GI50 [16]: 37.6 µM | TGI [16]: > 100 µM | GI50 [17]: > 100 µM | TGI [17]: > 100 µM | GI50 [18]: > 100 µM | TGI [18]: > 100 µM | GI50 [19]: 77.8 µM | TGI [19]: > 100 µM | GI50 [20]: > 100 µM | TGI [20]: > 100 µM | GI50 [21]: 57.7 µM | TGI [21]: > 100 µM | GI50 [22]: 40.5 µM | TGI [22]: > 100 µM | GI50 [23]: 47.5 µM | TGI [23]: > 100 µM | GI50 [24]: > 100 µM | TGI [24]: > 100 µM | GI50 [25]: > 100 µM | TGI [25]: > 100 µM | GI50 [26]: 60.3 µM | TGI [26]: > 100 µM | GI50 [27]: > 100 µM | TGI [27]: > 100 µM | GI50 [28]: > 100 µM | TGI [28]: > 100 µM | GI50 [29]: > 100 µM | TGI [29]: > 100 µM | GI50 [30]: > 100 µM | TGI [30]: > 100 µM | GI50 [31]: 37.4 µM | TGI [31]: > 100 µM | GI50 [32]: > 100 µM | TGI [32]: > 100 µM | GI50 [33]: 39 µM | TGI [33]: > 100 µM | GI50 [34]: 46 µM | TGI [34]: > 100 µM | GI50 [35]: 51.5 µM | TGI [35]: > 100 µM | GI50 [36]: 60 µM | TGI [36]: > 100 µM | GI50 [37]: 68 µM | TGI [37]: > 100 µM | GI50 [38]: > 100 µM | TGI [38]: > 100 µM | GI50 [39]: > 100 µM | TGI [39]: > 100 µM | GI50 [40]: 61.6 µM | TGI [40]: > 100 µM | GI50 [41]: 43.6 µM | TGI [41]: > 100 µM | GI50 [42]: 32.1 µM | TGI [42]: > 100 µM | GI50 [43]: > 100 µM | TGI [43]: > 100 µM | GI50 [44]: 86.2 µM | TGI [44]: > 100 µM | GI50 [45]: 57 µM | TGI [45]: > 100 µM | GI50 [46]: > 100 µM | TGI [46]: > 100 µM | GI50 [47]: 58.7 µM | TGI [47]: > 100 µM | GI50 [48]: 86.7 µM | TGI [48]: > 100 µM | GI50 [49]: > 100 µM | TGI [49]: > 100 µM | GI50 [50]: 36.6 µM | TGI [50]: > 100 µM | GI50 [51]: 94.5 µM | TGI [51]: > 100 µM | GI50 [52]: > 100 µM | TGI [52]: > 100 µM | GI50 [53]: 82.1 µM | TGI [53]: > 100 µM | GI50 [54]: 47.7 µM | TGI [54]: > 100 µM | GI50 [55]: > 100 µM | TGI [55]: > 100 µM | GI50 [56]: 73.8 µM | TGI [56]: > 100 µM | GI50 [57]: 53.7 µM | TGI [57]: > 100 µM
